Source: the supplement of paper PMC10307832

Assays:
Test in all cases: relative viability (nuclei count vs DMSO), 5 days (fraction); higher = more cells survive
MK-8033 + Vorinostat = compound: Cn1cc(-c2cnc3ccc4ccc(CS(=O)(=O)NCc5ccccn5)cc4c(=O)c3c2)cn1 [MK-8033] + O=C(CCCCCCC(=O)Nc1ccccc1)NO [Vorinostat] (partner 1 µM)
Method in brief: (§1)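 Lung cancer cell lines in 1536-well plates got either a single drug or a fixed anchor-drug dose together with five library-drug doses (not always all listed) in √10 steps, by pin tool, on the day after seeding. Nuclei were counted after 5 days, and relative viability is the treated-to-vehicle ratio of nuclei counts. Values are medians of duplicate plates.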

Irinotecan + Tozasertib = compound: CCc1c2c(nc3ccc(OC(=O)N4CCC(N5CCCCC5)CC4)cc13)-c1cc3c(c(=O)n1C2)COC(=O)[C@]3(O)CC [Irinotecan] + Cc1cc(Nc2cc(N3CCN(C)CC3)nc(Sc3ccc(NC(=O)C4CC4)cc3)n2)n[nH]1 [Tozasertib] (partner 0.1 µM)
Method in brief: as §1

RU-SKI 43 + OSI-027 = compound: CC[C@@H](C)CNCC(=O)N1CCC2=C([C@@H]1COC3=CC=CC(=C3)C)C=CS2 [RU-SKI 43] + COc1cccc2cc(-c3nc([C@H]4CC[C@H](C(=O)O)CC4)n4ncnc(N)c34)[nH]c12 [OSI-027] (partner 0.5 µM)
Method in brief: as §1

MK-8033 + Crizotinib = compound: Cn1cc(-c2cnc3ccc4ccc(CS(=O)(=O)NCc5ccccn5)cc4c(=O)c3c2)cn1 [MK-8033] + C[C@@H](Oc1cc(-c2cnn(C3CCNCC3)c2)cnc1N)c1c(Cl)ccc(F)c1Cl [Crizotinib] (partner 1 µM)
Method in brief: as §1

Row | Cell Line | relative viability (MK-8033 + Vorinostat; first compound 0.02 µM) | relative viability (MK-8033 + Vorinostat; first compound 0.06325 µM) | relative viability (MK-8033 + Vorinostat; first compound 0.2 µM) | relative viability (MK-8033 + Vorinostat; first compound 0.6325 µM) | relative viability (MK-8033 + Vorinostat; first compound 2 µM) | relative viability (Irinotecan + Tozasertib; first compound 0.6325 µM) | relative viability (Irinotecan + Tozasertib; first compound 2 µM) | relative viability (Irinotecan + Tozasertib; first compound 6.325 µM) | relative viability (Irinotecan + Tozasertib; first compound 20 µM) | relative viability (RU-SKI 43 + OSI-027; first compound 0.1 µM) | relative viability (RU-SKI 43 + OSI-027; first compound 0.3162 µM) | relative viability (RU-SKI 43 + OSI-027; first compound 1 µM) | relative viability (RU-SKI 43 + OSI-027; first compound 3.162 µM) | relative viability (RU-SKI 43 + OSI-027; first compound 10 µM) | relative viability (MK-8033 + Crizotinib; first compound 0.02 µM) | relative viability (MK-8033 + Crizotinib; first compound 0.06325 µM) | relative viability (MK-8033 + Crizotinib; first compound 0.2 µM) | relative viability (MK-8033 + Crizotinib; first compound 0.6325 µM) | relative viability (MK-8033 + Crizotinib; first compound 2 µM)
1 | NCI-H460 | 0.79 | 0.473 | 0.656 | 0.742 | 0.726 | 0.374 | 0.186 | 0.0861 | 0.0393 | 0.643 | 1.24 | 1.14 | 0.913 | 0.521 | 0.949 | 0.793 | 0.879 | 0.822 | 0.844
2 | NCI-H2087 | 0.788 | 0.368 | 0.749 | 0.728 | 0.692 | 0.184 | 0.239 | 0.36 | 0.192 | 0.666 | 0.56 | 0.705 | 0.563 | 0.516 | 0.957 | 0.746 | 0.883 | 0.989 | 0.836
3 | EKVX | 0.484 | 0.72 | 0.734 | 0.746 | 0.66 | 0.336 | 0.258 | 0.303 | 0.177 | 0.412 | 0.67 | 0.725 | 0.813 | 0.466 | 0.966 | 0.735 | 0.799 | 0.908 | 0.601
4 | NCI-H1355 | 0.62 | 0.549 | 0.62 | 0.658 | 0.592 |  | 0.486 | 0.311 | 0.227 | 0.408 | 0.378 | 0.486 | 0.428 | 0.442 | 1.07 | 0.988 | 1.03 | 1.05 | 1.02
5 | NCI-H661 | 0.785 | 0.71 | 0.793 | 0.761 | 0.767 | 0.372 | 0.372 | 0.469 | 0.333 | 0.721 | 0.808 | 0.724 | 0.694 | 0.68 | 0.991 |  | 1.02 | 0.948 | 0.903
6 | PC-3 [JPC-3] | 0.886 |  | 0.77 | 0.924 | 0.817 | 0.78 | 0.81 | 0.363 | 0.314 | 0.682 | 0.862 | 0.797 | 0.804 | 0.366 | 0.963 |  | 0.902 | 0.981 | 0.936
7 | NCI-H2085 | 0.744 | 0.734 | 0.691 | 0.835 | 0.764 | 0.843 | 0.726 | 0.505 | 0.51 | 0.705 | 0.678 | 0.696 | 0.834 | 0.552 | 0.873 | 0.804 | 0.867 | 0.801 | 0.977
8 | NCI-H1650 | 0.507 | 0.416 | 0.723 | 0.532 | 0.562 |  | 0.423 | 0.366 | 0.211 | 0.597 | 0.584 | 0.835 | 0.618 | 0.618 | 0.997 | 0.867 | 0.996 | 0.919 | 0.832
9 | NCI-H1993 | 0.688 | 0.644 | 0.587 | 0.571 | 0.638 | 0.582 | 0.71 | 0.639 | 0.644 | 0.53 | 0.527 | 0.596 | 0.59 | 0.575 | 0.734 | 0.658 | 0.836 | 0.668 | 0.819
